# Measured values as given in article PMC8279415, “Targeting Acute Myelogenous Leukemia Using Potent Human Dihydroorotate Dehydrogenase Inhibitors Based on the 2-Hydroxypyrazolo[1,5-a]pyridine Scaffold: SAR of the Biphenyl Moiety” (Journal of Medicinal Chemistry, 2021).
# “Also recorded” adds a separate entry of the source. Like-named read-outs stand apart in the source and are kept apart here.
# Assays:
# [1] = Protein binding in vitro (ultrafiltration); type: in vitro ADME; conditions: male, human serum, 37 °C, read-out: protein binding (% bond) (converted)
# Procedure: This was achieved via ultrafiltration using commercially available membrane systems (Centrifree ultrafiltration devices with ultracel YM-T membrane, Merck). […] 1 mL of the solution obtained in the sample reservoir of the ultrafiltration device was gently shaken in an orbital shaker at 37 °C for 1 h. […] The concentrations of the compounds in the ultrafiltrate and filtrate were determined using reverse-phase UHPLC, and the chromatographic conditions were those described above with different injection volumes: 20 μL for ultrafiltrate samples and 2 μL for filtrate samples.
# [2] = cited from earlier work
# [3] = LogD7.4, shake-flask n-octanol/PBS; conditions: n-octanol/PBS, pH 7.4
# Procedure: The partition coefficients between n-octanol and PBS at pH 7.4 (LogD^7.4) were obtained using the shake-flask technique at room temperature. In the shake-flask experiments, 50 mM phosphate buffered saline, pH 7.4, was used as the aqueous phase. The organic (n-octanol) and aqueous phases were mutually saturated by shaking for 4 h. The compounds were solubilized in the buffered aqueous phase at the highest concentration compatible with solubility, and appropriate amounts of n-octanol were added. The two phases were shaken for about 20 min, by which time the partitioning equilibrium of solutes had been reached, and then centrifuged (10 000 rpm, 10 min). The concentration of the solutes was measured in the aqueous phase using a UV spectrophotometer (Varian Cary 50BIO); absorbance values (recorded for each compound at the wavelength of maximum absorption) were interpolated in calibration curves obtained using standard solutions of the compounds (r^2 > 0.99). Each log D value is an average of at least six measurements.
# THP1 cells [4] = experiment: Fixed-concentration screening of differentiation (CD14) and apoptosis (annexin V) in THP1, with or without uridine; type: cell-based, human
# Procedure: DMSO (dimethyl sulfoxide) acts as the negative control group as it was used to solubilize hDHODH inhibitors. ∗, ∗∗, ∗∗∗ represent the statistical significance for apoptosis (respectively p < 0.05, < 0.01, and <0.001). #, ##, and ### represent the statistical significance for differentiation (respectively p < 0.05, <0.01, and <0.001). The statistical significance is calculated by comparing the compounds to DMSO.
# The statistical significance is calculated by comparing the compounds to DMSO.
# recombinant hDHODH = biological target: T1, recombinant hDHODH (Homo sapiens, UniProt Q02127); experiment: hDHODH inhibition assay (DCIP reduction); type: biochemical
# T1 construct: made in house; host or cells: E. coli BL21DE3 PyrD
# Procedure: BL21DE3 PyrD E. coli cells were transformed using the plasmid construct pFN2A–hDHODH (kindly given by Department of Drug Science and Technology, University of Turin, Turin, Italy). The vector produces hDHODH as an N-terminal GST-fusion protein. Cells were grown at 37 °C in LB medium supplemented with 0.1 mM flavin mononucleotide (Cayman Chemical). […] Triton X-100 was added to the lysate, to a final concentration of 1%, before centrifugation at 14 000g for 40 min at 4 °C. The clarified supernatant was incubated with DNase I for 30 min at room temperature, supplemented with 2 mM dithiothreitol (DTT), and filtered through a 0.45 μm syringe filter as previously described by Sainas et al.[18] The GST-fused enzyme was purified from the bacterial lysate using affinity chromatography on immobilized glutathione-Sepharose columns (GE- […]). The GST tag was not cleaved for further analysis. All the reagents used in the protein expression and purification were supplied by Merck/Sigma-Aldrich if not otherwise specified.
# The enzymatic inhibition assay was optimized for being performed on a 96-well plate and to achieve higher throughput. For each well of the plate a total volume of 200 μL was used: 5 μL of purified GST-hDHODH; 60 μL of 2,6-dichloroindophenol (DCIP) 50 μM; 20 μL of coenzyme Q10 enzyme 100 μM; 20 μL of dihydroorotate (DHO) 500 μM; Tris-HCl, pH 8, up to a final volume of 200 μL. Inhibitory activity was assessed by monitoring the reduction of DCIP, which is associated with the oxidation of dihydroorotate as catalyzed by the DHODH enzyme. The enzyme was preincubated for 5 min at 37 °C in Tris-HCl, pH 8, with coenzyme Q10, with DCIP (50 μM), and with the compounds to be tested used at different concentrations (final DMSO concentration 0.1% v/v). The reaction was initiated by the addition of DHO (500 μM), and the absorbance kinetic reduction was monitored at λ = 650 nm using a multiplate reader (Tecan, M1000Pro). In order to assess the minimum and maximum absorbance values of the enzymatic reaction, a Min control value was obtained by measuring the absorbance without DHO. Similarly, a Max value was obtained by measuring the absorbance with DHO but no inhibitor. A blank reduction calculation was also performed by measuring the absorbance values using 180 μL of Tris-HCl and 20 μL of coenzyme Q10. The instrument was set to read the absorbance values every 10 s for a total read time of 10 min at 37 °C. […] Values are the mean ± SE of three independent experiments.
# U937 cells [5] = experiment: Annexin V apoptosis assay in U937; conditions: Homo sapiens, U-937, 72 h, read-out: apoptosis EC50 U937 (CL 95%)
# THP1 cells [6] = experiment: Differentiation assay (CD14 expression) in THP1; conditions: Homo sapiens
# [7] = Solubility assay at pH 7.4 in PBS; type: physicochemical; conditions: pH 7.4, 25 °C, 24 h, LOD 6 μM; for solubility at 24 h: phosphate buffered saline
# Procedure: These suspensions were filtered through a PTFE 0.45 μm filter (VWR), and the solutions were chromatographically analyzed using a PerkinElmer ultrahigh performance liquid chromatography (UHPLC) instrument, equipped with a reverse-phase (RP) C18 Phenomenex column (2.1 mm × 100 mm, 1.7 μm particle size). […] The flow rate was 0.5 mL/min. Standard injection volumes were either 2 or 4 μL for poorly soluble compounds. The detection system was a PerkinElmer diode array detector. The wavelengths that were monitored for each compound were defined according to the compound’s own absorption spectrum. Solubility, expressed as μM concentration of the saturated solution, was calculated via interpolation with external calibration curves that were obtained with solutions of each compound in acetonitrile.
# U937 cells [8] = experiment: Differentiation assay (CD11b expression) in U937; conditions: Homo sapiens, U-937, 72 h, read-out: differentiation EC50 U937 (CL 95%)
# Jurkat cells = experiment: CFSE-based cytotoxic activity assay; conditions: concentration inducing cytotoxicity ≥30%, 3 days
# THP1 cells [9] = experiment: Annexin V apoptosis assay in THP1; conditions: Homo sapiens
# [10] = In vitro metabolic profile in rat-liver microsomes; type: in vitro ADME
# Procedure: SyGMa (systematic generation of potential metabolites) software, a tool that lists predicted metabolites with associated empirical probability scores, was used to identify putative metabolites, which were then investigated by analyzing samples with liquid chromatography coupled to high-resolution mass spectrometry (HPLC–HRMS). […] The full-scan MS data acquired for all of the samples were analyzed to find the m/z values of the predicted molecular structures. In order to exclude interfering signals, the results obtained were compared to blank samples and common background peaks were not considered.
# Rat-liver microsomes (Sprague-Dawley, male, Sigma-Aldrich; 20 mg/mL protein concentration) were incubated with the candidate compound solution (5 μM final concentration, with 1% DMSO) and Tris buffer (0.1 M, pH = 7.4). The regenerating system, which slowly generated coenzyme units over the incubation time, leading to a better reproduction of in vivo behavior, was composed of MgCl2 (3.3 mM), NADP^+ (1.3 mM), Glu6P (3.5 mM), and Glu6P dehydrogenase (0.5 U/mL).
# The incubation time started with the addition of the microsomes suspension (0.5 mg/mL).
# Metabolic reactions were stopped by adding 100 μL of cooled acetonitrile to the 100 μL sample of the incubation mixture. Samples were centrifuged to provoke protein precipitation, and the supernatants were immediately stocked at −80 °C, until analysis, to prevent the potential degradation of unstable products.
# The products of in vitro metabolism were identified using a high-resolution mass spectrometer (Q-Exactive Orbitrap, Thermo Scientific) coupled to an HPLC instrument (1200 system Agilent). All analytes were separated on an Ascentis C18 column (150 mm × 2.1 mm, 5 μm particle size) maintained at 35 °C. The elution mixture was composed of solvent A (0.1% formic acid in water for positive ionization mode and 0.05% acetic acid for negative ionization mode) and solvent B (acetonitrile). […] MS2-DIA scans were acquired at R = 17 500 and with variable collision energies ranging from 30 to 45, depending on the m/z of the parent ion.
# [11] = cited from earlier work; remark: listed apart in the source
# [12] = parameters: method as in doi:10.1158/1538-7445.AM2019-2; conditions: cited from earlier work
# [13] = mean ± SE of three independent experiments, read-out: hDHODH, IC50 ± SE
# [14] = supplementary CSV, values differ from Table 2, read-out: hDHODH IC50 ± SE (supplement CSV)
# [15] = THP-1, 72 h, read-out: differentiation EC50 THP1 (CL 95%)
# [16] = THP-1, read-out: Differentiation EC50 (C.L.95%) (supplement CSV)
# [17] = THP-1, 72 h, read-out: apoptosis EC50 THP1 (CL 95%)
# [18] = THP-1, read-out: Apoptosis EC50 (C.L.95%) (supplement CSV)
# T1 sequence (Q02127 whole entry): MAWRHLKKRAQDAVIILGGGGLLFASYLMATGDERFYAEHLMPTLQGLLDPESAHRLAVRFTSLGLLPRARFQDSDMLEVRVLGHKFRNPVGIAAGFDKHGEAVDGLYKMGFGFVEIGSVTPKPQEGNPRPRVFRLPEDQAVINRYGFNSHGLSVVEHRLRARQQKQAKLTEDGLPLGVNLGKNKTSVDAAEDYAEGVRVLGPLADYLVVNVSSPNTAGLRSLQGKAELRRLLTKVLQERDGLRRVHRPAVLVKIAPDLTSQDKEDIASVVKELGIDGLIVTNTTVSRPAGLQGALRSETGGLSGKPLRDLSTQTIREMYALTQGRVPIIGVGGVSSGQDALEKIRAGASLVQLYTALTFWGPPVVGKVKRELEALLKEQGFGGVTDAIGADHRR
Structure (SMILES),"fraction unbound at 1 h, 50 µM [1]",logD [3],IC50 (recombinant hDHODH; [13]) [nM],IC50 (recombinant hDHODH; [14]) [nM],EC50 (U937 cells [5]) [nM],EC50 (THP1 cells [6]; [15]) [nM],EC50 (THP1 cells [6]; [16]) [nM],solubility at 24 h [7] [µM],EC50 (U937 cells [8]) [nM],cytoxicity Jurkat (effect ≥30% ± SD) (Jurkat cells) [µM],EC50 (THP1 cells [9]; [17]) [nM],EC50 (THP1 cells [9]; [18]) [nM],"activity in cells (differentiation and apoptosis) (THP1 cells [4]; THP1, 0.1 μM)",other results
"Cc1c(-c2ccc(-c3ccccc3F)cc2)nc2ccc(F)cc2c1C(=O)O [Brequinar, reference compound]",0.0117,,,,,,,,,,,,,
COc1cccc(-c2cc(F)c(Nc3ncccc3C(=O)O)c(F)c2)c1 [ASLAN003],,,,,,,,,,,,,,protein binding (% bond) [2]: >99[25] %
"O=C(Nc1c(F)c(F)c(-c2cccnc2)c(F)c1F)c1c(O)nn2ccccc12 [Compound 8, 2-Hydroxy-N-(2,3,5,6-tetrafluoro-4-(pyridin-3-yl)phenyl)pyrazolo[1,5-a]pyridine-3-carboxamide]",0.0042,0.98 ± 0.03,6.23 ± 0.63,7.19 ± 0.19,,,,,,,,,,"activity in cells (differentiation and apoptosis) (THP1 cells [4]; THP1, 1 μM): basically inactive"
"O=C(Nc1c(F)c(F)c(-c2cccc(F)c2)c(F)c1F)c1c(O)nn2ccccc12 [Compound 11, 2-Hydroxy-N-(2,3,3′,5,6-pentafluoro-[1,1′-biphenyl]-4-yl)pyrazolo[1,5-a]pyridine-3-carboxamide]",0.0004,2.09 ± 0.04,2.03 ± 0.44,2.37 ± 0.35,68.2,67.6,58.9,< 6,40.7,39 ± 3,250,222,highly active,solubility in PBS [7]: <LOD
"O=C(Nc1c(F)c(F)c(-c2cccc(C(F)(F)F)c2)c(F)c1F)c1c(O)nn2ccccc12 [Compound 13, 2-Hydroxy-N-(2,3,5,6-tetrafluoro-3′-(trifluoromethyl)-[1,1′-biphenyl]-4-yl)pyrazolo[1,5-a]pyridine-3-carboxamide]",0.0006,2.69 ± 0.03,6.34 ± 0.63,3.01 ± 0.37,60,38.3,32,< 6,34.2,>100,51.1,42.9,highly active,solubility in PBS [7]: <LOD
"O=C(Nc1c(F)c(F)c(-c2cccc(OC(F)(F)F)c2)c(F)c1F)c1c(O)nn2ccccc12 [Compound 15, 2-Hydroxy-N-(2,3,5,6-tetrafluoro-3′-(trifluoromethoxy)-[1,1′-biphenyl]-4-yl)pyrazolo[1,5-a]pyridine-3-carboxamide]",,3.27 ± 0.19,,2.62 ± 0.79,35.3,31.5,28,8.1,8.6,>100,39.6,32.6,highly active,"metabolites identified in sample C ([10]; active rat-liver microsomes and regenerating system, HPLC-HRMS): did not identify appreciable concentration of metabolites; parent compound recovered ([10]; rat-liver microsomes with regenerating system, 2 h incubation): 100%; metabolic stability ([10]; rat-liver microsomes, 2 h): metabolically stable; also recorded: good metabolic stability"
"CCn1c(CO)nn(-c2cc(O[C@@H](C)C(F)(F)F)c(C(=O)Nc3c(F)cccc3Cl)cc2F)c1=O [BAY-2402234, reference compound]",,,,,,2.4,,,,36 ± 4,3.4,,,LogD^7.4 [11]: 2.7[27]; solubility in PBS [12]: <1[31] μM
"COc1cccc(-c2c(F)c(F)c(NC(=O)c3c(O)nn4ccccc34)c(F)c2F)c1 [Compound 16, 2-Hydroxy-N-(2,3,5,6-tetrafluoro-3′-methoxy-[1,1′-biphenyl]-4-yl)pyrazolo[1,5-a]pyridine-3-carboxamide]",0.0005,,,1.47 ± 0.33,42.8,31.2,26.9,74.3,31.1,68 ± 7,37.9,29.6,highly active,
